Marks after values point to notes of the source that are not given here.

The subject of assay [1] is H1975. The assay is described as follows: In vivo xenograft model of non-small cell lung cancer H1975. To be noted: NCI-H1975; 7.5 mg/kg/day, QDx1/IV. How it is done:
(§1) The anti-tumor activity was assessed as monotherapy and in combination with docetaxel (H1650, H1299, H1975, and EBC1).

For assay [2], the system named is H1650. The assay is described as follows: In vivo xenograft model H1650. The arrangement: species or system mouse. The settings on record: NCI-H1650, 7.5 mg/kg/day.
In assay [3] the test system is EBC1. The assay is described as follows: In vivo xenograft model of non-small cell lung cancer EBC1. The settings on record: 7.5 mg/kg/day, QDx1/IV. How it is done: as §1
The test system of assay [4] is H1299. The assay is described as follows: In vivo xenograft model of non-small cell lung cancer H1299. The settings on record: NCI-H1299; 7.5 mg/kg/day, QDx1/IV. How it is done: as §1

For `CC(=O)O[C@@]12CO[C@@H]1C[C@H](O)[C@@]1(C)C(=O)[C@H](O)C3=C(C)[C@@H](OC(=O)[C@H](O)[C@@H](NC(=O)OC(C)(C)C)c4ccccc4)C[C@@](O)([C@@H](OC(=O)c4ccccc4)[C@H]21)C3(C)C` [Docetaxel], the “TGD (%)” value in assay [1] is 77%; in assay [2] (IV/Q14Dx3), 158* %; in assay [2] (QDx1/IV), 143%; in assay [3] it was 80%; in assay [4] it was 48%. Further, the “TGImax (%)” value in assay [1] is given as 81%; in assay [2] (IV/Q14Dx3) it was 80* %; in assay [2] (QDx1/IV), 84%; in assay [3], 85%; in assay [4] it was 87%.

The values are drawn from patent US10640563B2, “Anti-B7-H3 antibodies and antibody drug conjugates” (AbbVie Inc., priority 2016, dated 2020).
